US20100273876A1, “ANTIBACTERIAL FORMULATION COMPRISING A DIALKYL SULPHOSUCCINATE AND A CARBANILIDE ANTIBACTERIAL AGENT” (priority 2007, published 2010)

Columns and labels:
[1] = system: Strep. mutans ATCC 25175; assay: Biofilm disruption assay on hydroxyapatite discs; assay type: cell-based, Streptococcus mutans; conditions: Strep. mutans ATCC 25175 biofilm, DOSS 1.0% (w/v), CHX 0.2% (w/v)
Protocol: This assay was designed to determine quantitatively the relative potency of a test compound to disrupt (effectively kill) biofilms formed by a test organism on hydroxyapatite (HA) discs.
Biofilms were formed on sterile dense ceramic HA discs 7 mm diameter x 1.8 mm thick (Clarkson Chromatography) by placing the discs in the appropriate liquid media (as described above) inoculated with the test organism (0.5×10^8 cfu/ml). The HA discs were then incubated at 37° C. for ˜48 h in a 5% CO2 atmosphere (for Strep. mutans ATCC 25175) or ˜96 h under anaerobic conditions (for Por. gingivalis 381). Following the incubation period the supernatant was removed from the wells containing the HA discs and the discs were washed×3 with fresh media to ensure all planktonic cells were removed. The HA discs were then transferred to sterile bijoux bottles containing 1 ml of phosphate buffered saline (PBS) plus test compound(s) at the required concentration. After a set time period (usually 2 and/or 5 min), the HA disc was transferred to another sterile bijoux containing 1 ml of fresh growth media. Adherent cells were then harvested by vigorous vortexing for 2 minutes. A sample was then taken, serially diluted 10-fold in fresh growth media and inoculated onto agar plates in triplicate. Untreated HA discs, and HA discs added to PBS containing only the solvents used to dissolve the test compound(s), acted as controls.
The plates were then incubated as described above and subsequently examined visually for growth. Colonies were counted at an appropriate serial dilution (5-50 individual colonies visible) with the aid of a colony counter. These measurements were then converted to numbers of colony forming units (cfu), using the formula: cfu/ml=number of colonies×serial dilution factor×100 (as only a 10 μl sample was taken).
These cfu values were then converted into log10 values and plotted graphically against time of sample removal.
At each time point, samples were assessed in triplicate; the final cfu/ml value was an average (mean) of the three readings.
Biofilm disruption assays, as described above, were carried out using DOSS as the test compound and chlorhexidine (CHX) as a positive control. For these experiments, the DOSS was tested at 0.5% w/v against Por. gingivalis and 1% w/v against Strep. mutans. The ahlorhexidine was tested at a concentration of 0.2% w/v against both micro-organisms. The DOSS was dissolved in ethanol and the chlorhexidine in distilled water. All the experiments were conducted in triplicate.

[2] = system: P. acnes PRP-007; assay: Agar dilution MIC assay; assay type: cell-based, Propionibacterium acnes; conditions: P. acnes PRP-007 (Clin)
Protocol: (§1) The propionibacteria were cultured and maintained on Wilkins-Chalgren Anaerobe Medium (agar and broth) at pH 6.0; all cultures were incubated anaerobically at 37° C. for 72 hours.
(§2) This is a standard international method for quantitatively assessing the antimicrobial activity of a compound in a solid medium. The test compound was prepared to 40× the highest concentration required (eg, 10 mg/ml for a final concentration of 250 μg/ml) and a series of doubling dilutions were performed in a suitable solvent. A set amount of these antimicrobial stock solutions was then added to molten agar medium (ca. 55° C.), mixed thoroughly, poured into sterile Petri dishes and allowed to cool/set.
(§3) A Multipoint™ Inoculator (AQS Manufacturing Ltd, UK) was used to inoculate the plates by spotting the inocula onto the surface of the agar, delivering approximately 1 to 2 μl per spot (yielding 10^5 CFU(colony forming units) per spot).
(§4) The plate(s) were then incubated under the conditions described above, following which they were examined visually for signs of bacterial growth. The MIC value was ascertained when there was a marked reduction in, or total loss of, growth on the test plate at the lowest concentration as compared to that of the growth on the control plate.
(§5) The assays were conducted in duplicate and included a positive control (culture medium, diluting solvent and inoculum).

[3] = system: P. acnes PRP-059; assay: Agar dilution MIC assay; assay type: cell-based, Propionibacterium acnes; conditions: P. acnes PRP-059 (MLS)
Protocol: as §1, §2, §3, §4, §5

[4] = system: P. acnes PRP-003; assay: Agar dilution MIC assay; assay type: cell-based, Propionibacterium acnes; conditions: P. acnes PRP-003 (Tet)
Protocol: as §1, §2, §3, §4, §5

[5] = system: P. acnes PRP-010; assay: Agar dilution MIC assay; assay type: cell-based, Propionibacterium acnes; conditions: P. acnes PRP-010 (MLSK)
Protocol: as §1, §2, §3, §4, §5

[6] = system: P. acnes PRP-068; assay: Agar dilution MIC assay; assay type: cell-based, Propionibacterium acnes; conditions: P. acnes PRP-068 (Ery)
Protocol: as §1, §2, §3, §4, §5

[7] = system: P. acnes PRP-002; assay: Agar dilution MIC assay; assay type: cell-based, Propionibacterium acnes; conditions: P. acnes PRP-002 (Tet/MLS)
Protocol: as §1, §2, §3, §4, §5

[8] = system: P. acnes PRP-026; assay: Agar dilution MIC assay; assay type: cell-based, Propionibacterium acnes; conditions: P. acnes PRP-026 (MLS)
Protocol: as §1, §2, §3, §4, §5

[9] = system: P. acnes PRP-017; assay: Agar dilution MIC assay; assay type: cell-based, Propionibacterium acnes; conditions: P. acnes PRP-017 (MLS)
Protocol: as §1, §2, §3, §4, §5

[10] = system: P. acnes PRP-053; assay: Agar dilution MIC assay; assay type: cell-based, Propionibacterium acnes; conditions: P. acnes PRP-053 (Tet/MLS)
Protocol: as §1, §2, §3, §4, §5

[11] = system: C. striatum NCTC 764; assay: MBC assay; assay type: cell-based, Corynebacterium striatum
Protocol: Several Corynebacterium test species were also used in this study, namely C. mucifaciens ATCC 700355, C. striatum NCTC 764, C. xerosis NCTC 11861 and C. jeikeium NCTC 11915. These Gram-positive pathogens are closely related to organisms (aerobic diphtheroids of the genus Corynebacterium) that cause body odour. C. mucifaciens and C. striatum were cultured and maintained on Mueller-Hinton Medium (agar and broth) and were incubated aerobically at 37° C. for 24 hours. C. xerosis and C. jeikeium were cultured and maintained on Mueller-Hinton Medium containing 5% (v/v) lysed horse blood (agar and broth) and were incubated aerobically at 37° C. for 72 hours. This assay, normally carried out after an MIC assay, determines the rnininiurn concentration of a compound that is lethal to the micro-organism being tested. […] These samples were then individually sub-cultured on antibiotic-free agar medium, under the incubation conditions described above. Following incubation they were examined visually for microbial growth.

[12] = system: Por. gingivalis NCTC 11834; assay: MBC assay; assay type: cell-based, Porphyromonas gingivalis
Protocol: The P. gingivalis strains were cultured and maintained on Wilkins-Chalgren Anaerobe Medium (agar and broth) at pH 7.0; all cultures were incubated anaerobically at 37° C. for 5-7 days. This assay, normally carried out after an MIC assay, determines the rnininiurn concentration of a compound that is lethal to the micro-organism being tested. […] These samples were then individually sub-cultured on antibiotic-free agar medium, under the incubation conditions described above. Following incubation they were examined visually for microbial growth.

## dioctyl sodium sulphosuccinate [DOSS]
[1]; 0 min
  Viable cell counts: 6.56 log10 cfu/ml
[1]; 2 min
  Viable cell counts: 2.87 log10 cfu/ml
[1]; 5 min
  Viable cell counts: 3.36 log10 cfu/ml
[2]
  MIC: 15.6 µg/mL
[3]
  MIC: 15.6 µg/mL
[4]
  MIC: 15.6 µg/mL
[5]
  MIC: 15.6 µg/mL
[6]
  MIC: 15.6 µg/mL
[7]
  MIC: 15.6 µg/mL
[8]
  MIC: 15.6 µg/mL
[9]
  MIC: 15.6 µg/mL
[10]
  MIC: 15.6 µg/mL
[11]
  MBC: 62.5 µg/mL
  MIC/MBC ratio: 1
[12]
  MBC: <0.49 µg/mL
